≈ marks a conversion by molar mass, not a printed value. Calls of active or inactive are those of the source. The calls are words filed in the database; no cut-off is given here.
What was measured:
[1] = test system: Pseudomonas aeruginosa; assay: Antimicrobial activity against Pseudomonas aeruginosa ATCC 10145; type: functional
[2] = test system: Escherichia coli; assay: Antimicrobial activity against Escherichia coli 25922; type: functional
[3] = test system: Pseudomonas aeruginosa; assay: Antimicrobial activity against Pseudomonas aeruginosa ATCC 27853; type: functional
[4] = test system: Burkholderia stabilis; assay: Antimicrobial activity against genomovar type IV Burkholderia stabilis LMG 14294 at 40 ug/disk by disk diffusion growth inhibition assay; type: functional
[5] = test system: Burkholderia cepacia; assay: Antimicrobial activity against genomovar type I Burkholderia cepacia CEP509 at 40 ug/disk by disk diffusion growth inhibition assay; type: functional, organism-based
[6] = test system: Burkholderia stabilis; assay: Antimicrobial activity against genomovar type IV Burkholderia stabilis LMG 14086 at 40 ug/disk by disk diffusion growth inhibition assay; type: functional
[7] = test system: Burkholderia multivorans; assay: Antimicrobial activity against genomovar type II Burkholderia multivorans JTC; type: functional
[8] = test system: Burkholderia cenocepacia; assay: Antimicrobial activity against genomovar type III Burkholderia cenocepacia K562 at 40 ug/disk by disk diffusion growth inhibition assay; type: functional, organism-based
[9] = test system: Burkholderia dolosa; assay: Antimicrobial activity against genomovar type VI Burkholderia dolosa E12 at 40 ug/disk by disk diffusion growth inhibition assay; type: functional; settings: read-out: DIZ
[10] = test system: Burkholderia vietnamiensis; assay: Antimicrobial activity against genomovar type V Burkholderia vietnamiensis LMG 16232 at 40 ug/disk by disk diffusion growth inhibition assay; type: functional; settings: read-out: DIZ
[11] = test system: Burkholderia cenocepacia; assay: Antimicrobial activity against genomovar type III Burkholderia cenocepacia J415 at 40 ug/disk by disk diffusion growth inhibition assay; type: functional; settings: read-out: DIZ
[12] = test system: Burkholderia multivorans; assay: Antimicrobial activity against genomovar type II Burkholderia multivorans C5393; type: functional
[13] = test system: Burkholderia stabilis; assay: Antimicrobial activity against genomovar type IV Burkholderia stabilis LMG 18888 at 40 ug/disk by disk diffusion growth inhibition assay; type: functional
[14] = test system: Burkholderia cenocepacia; assay: Antimicrobial activity against genomovar type III Burkholderia cenocepacia ATCC 17765 at 40 ug/disk by disk diffusion growth inhibition assay; type: functional, organism-based
[15] = test system: Burkholderia anthina; assay: Antimicrobial activity against genomovar type VIII Burkholderia anthina W92 at 40 ug/disk by disk diffusion growth inhibition assay; type: functional
[16] = test system: Burkholderia cenocepacia; assay: Antimicrobial activity against genomovar type III Burkholderia cenocepacia SAL1 at 40 ug/disk by disk diffusion growth inhibition assay; type: functional, organism-based
[17] = test system: Burkholderia multivorans; assay: Antimicrobial activity against genomovar type II Burkholderia multivorans LMG 13010 at 40 ug/disk by disk diffusion growth inhibition assay; type: functional; settings: read-out: DIZ
[18] = test system: Burkholderia cenocepacia; assay: Antimicrobial activity against genomovar type III Burkholderia cenocepacia PC184 at 40 ug/disk by disk diffusion growth inhibition assay; type: functional; settings: read-out: DIZ
[19] = test system: Burkholderia pyrrocinia; assay: Antimicrobial activity against genomovar type IX Burkholderia pyrrocinia BC011 at 40 ug/disk by disk diffusion growth inhibition assay; type: functional; settings: read-out: DIZ
[20] = test system: Burkholderia cepacia; assay: Antimicrobial activity against genomovar type I Burkholderia cepacia ATCC 17759 at 40 ug/disk by disk diffusion growth inhibition assay; type: functional, organism-based
[21] = test system: Burkholderia dolosa; assay: Antimicrobial activity against genomovar type VI Burkholderia dolosa AU0645 at 40 ug/disk by disk diffusion growth inhibition assay; type: functional; settings: read-out: DIZ
[22] = test system: Burkholderia pyrrocinia; assay: Antimicrobial activity against genomovar type IX Burkholderia pyrrocinia C1469 at 40 ug/disk by disk diffusion growth inhibition assay; type: functional
[23] = test system: Burkholderia pyrrocinia; assay: Antimicrobial activity against genomovar type IX Burkholderia pyrrocinia ATCC 39277 at 40 ug/disk by disk diffusion growth inhibition assay; type: functional; settings: read-out: DIZ
[24] = test system: Burkholderia multivorans; assay: Antimicrobial activity against genomovar type II Burkholderia multivorans ATCC 17616; type: functional
[25] = test system: Burkholderia anthina; assay: Antimicrobial activity against genomovar type VIII Burkholderia anthina J2552 at 40 ug/disk by disk diffusion growth inhibition assay; type: functional
[26] = test system: Burkholderia multivorans; assay: Antimicrobial activity against genomovar type II Burkholderia multivorans C1962; type: functional
[27] = test system: Burkholderia multivorans; assay: Antimicrobial activity against genomovar type II Burkholderia multivorans ATCC 17616 at 40 ug/disk by disk diffusion growth inhibition assay; type: functional; settings: read-out: DIZ
[28] = test system: Burkholderia multivorans; assay: Antimicrobial activity against genomovar type II Burkholderia multivorans C1576; type: functional
[29] = test system: Burkholderia vietnamiensis; assay: Antimicrobial activity against genomovar type V Burkholderia vietnamiensis PC259 at 40 ug/disk by disk diffusion growth inhibition assay; type: functional; settings: read-out: DIZ
[30] = test system: Burkholderia cenocepacia; assay: Antimicrobial activity against genomovar type III Burkholderia cenocepacia BC7 at 40 ug/disk by disk diffusion growth inhibition assay; type: functional, organism-based
[31] = test system: Burkholderia cenocepacia; assay: Antimicrobial activity against genomovar type III Burkholderia cenocepacia C5424 at 40 ug/disk by disk diffusion growth inhibition assay; type: functional; settings: read-out: DIZ
[32] = test system: Burkholderia multivorans; assay: Antimicrobial activity against genomovar type II Burkholderia multivorans C5393 at 40 ug/disk by disk diffusion growth inhibition assay; type: functional; settings: read-out: DIZ
[33] = test system: Burkholderia anthina; assay: Antimicrobial activity against genomovar type VIII Burkholderia anthina C1765 at 40 ug/disk by disk diffusion growth inhibition assay; type: functional; settings: read-out: DIZ
[34] = test system: Burkholderia cepacia; assay: Antimicrobial activity against genomovar type I Burkholderia cepacia ATCC 25416 at 40 ug/disk by disk diffusion growth inhibition assay; type: functional, organism-based
[35] = test system: Burkholderia multivorans; assay: Antimicrobial activity against genomovar type II Burkholderia multivorans 249-2; type: functional
[36] = test system: Burkholderia cenocepacia; assay: Antimicrobial activity against genomovar type III Burkholderia cenocepacia C6433 at 40 ug/disk by disk diffusion growth inhibition assay; type: functional, organism-based
[37] = test system: Burkholderia vietnamiensis; assay: Antimicrobial activity against genomovar type V Burkholderia vietnamiensis LMG 10929 at 40 ug/disk by disk diffusion growth inhibition assay; type: functional; settings: read-out: DIZ
[38] = test system: Burkholderia multivorans; assay: Antimicrobial activity against genomovar type II Burkholderia multivorans CF-A1-1; type: functional
[39] = test system: Burkholderia vietnamiensis; assay: Antimicrobial activity against genomovar type V Burkholderia vietnamiensis FC441 at 40 ug/disk by disk diffusion growth inhibition assay; type: functional; settings: read-out: DIZ
[40] = test system: Burkholderia ambifaria; assay: Antimicrobial activity against genomovar type VII Burkholderia ambifaria ATCC 53266 at 40 ug/disk by disk diffusion growth inhibition assay; type: functional; settings: read-out: DIZ
[41] = test system: Burkholderia multivorans; assay: Antimicrobial activity against genomovar type II Burkholderia multivorans 2492-2 at 40 ug/disk by disk diffusion growth inhibition assay; type: functional; settings: read-out: DIZ
[42] = test system: Burkholderia dolosa; assay: Antimicrobial activity against genomovar type VI Burkholderia dolosa STM1441 at 40 ug/disk by disk diffusion growth inhibition assay; type: functional; settings: read-out: DIZ
[43] = test system: Burkholderia multivorans; assay: Antimicrobial activity against genomovar type II Burkholderia multivorans CFA11 at 40 ug/disk by disk diffusion growth inhibition assay; type: functional; settings: read-out: DIZ
[44] = test system: Burkholderia stabilis; assay: Antimicrobial activity against genomovar type IV Burkholderia stabilis C7322 at 40 ug/disk by disk diffusion growth inhibition assay; type: functional; settings: read-out: DIZ
[45] = test system: Burkholderia cenocepacia; assay: Antimicrobial activity against genomovar type III Burkholderia cenocepacia CEP511 at 40 ug/disk by disk diffusion growth inhibition assay; type: functional, organism-based
[46] = test system: Burkholderia multivorans; assay: Antimicrobial activity against genomovar type II Burkholderia multivorans JTC at 40 ug/disk by disk diffusion growth inhibition assay; type: functional; settings: read-out: DIZ
[47] = test system: Burkholderia dolosa; assay: Antimicrobial activity against genomovar type VI Burkholderia dolosa CEP021 at 40 ug/disk by disk diffusion growth inhibition assay; type: functional; settings: read-out: DIZ
[48] = test system: Burkholderia anthina; assay: Antimicrobial activity against genomovar type VIII Burkholderia anthina AU1293 at 40 ug/disk by disk diffusion growth inhibition assay; type: functional; settings: read-out: DIZ
[49] = test system: Burkholderia pyrrocinia; assay: Antimicrobial activity against genomovar type IX Burkholderia pyrrocinia ATCC 15958 at 40 ug/disk by disk diffusion growth inhibition assay; type: functional; settings: read-out: DIZ
[50] = test system: Burkholderia ambifaria; assay: Antimicrobial activity against genomovar type VII Burkholderia ambifaria CEP0996 at 40 ug/disk by disk diffusion growth inhibition assay; type: functional; settings: read-out: DIZ
[51] = test system: Burkholderia ambifaria; assay: Antimicrobial activity against genomovar type VII Burkholderia ambifaria AMMD at 40 ug/disk by disk diffusion growth inhibition assay; type: functional; settings: read-out: DIZ
[52] = test system: Burkholderia cenocepacia; assay: Antimicrobial activity against genomovar type III Burkholderia cenocepacia J2315 at 40 ug/disk by disk diffusion growth inhibition assay; type: functional, organism-based
[53] = test system: Burkholderia multivorans; assay: Antimicrobial activity against genomovar type II Burkholderia multivorans C1962 at 40 ug/disk by disk diffusion growth inhibition assay; type: functional; settings: read-out: DIZ
[54] = test system: Burkholderia multivorans; assay: Antimicrobial activity against genomovar type II Burkholderia multivorans C1576 at 40 ug/disk by disk diffusion growth inhibition assay; type: functional; settings: read-out: DIZ

POLYMYXIN B
MIC [1]: 3.13 µg/mL | MIC [2]: 0.78 µg/mL | MIC [3]: 3.13 µg/mL

C[C@@H](O)[C@H](NC(=O)c1ccc(C#Cc2ccc(CN3CCOCC3)cc2)cc1)C(=O)NO
diameter of the inhibition zone (DIZ) [4]: inactive | diameter of the inhibition zone (DIZ) [5]: inactive | diameter of the inhibition zone (DIZ) [6]: inactive | MIC [7]: 1.56 µg/mL (≈ 3.57 µM) | diameter of the inhibition zone (DIZ) [8]: inactive | zone of inhibition at 40 µg/disc [9]: 23 mm | zone of inhibition at 40 µg/disc [10]: 23 mm | zone of inhibition at 40 µg/disc [11]: 21 mm | MIC [12]: 3.13 µg/mL (≈ 7.15 µM) | diameter of the inhibition zone (DIZ) [13]: inactive | diameter of the inhibition zone (DIZ) [14]: inactive | diameter of the inhibition zone (DIZ) [15]: inactive | diameter of the inhibition zone (DIZ) [16]: inactive | zone of inhibition at 40 µg/disc [17]: 14 mm | zone of inhibition at 40 µg/disc [18]: 18 mm | zone of inhibition at 40 µg/disc [19]: 23 mm | diameter of the inhibition zone (DIZ) [20]: inactive | zone of inhibition at 40 µg/disc [21]: 18 mm | diameter of the inhibition zone (DIZ) [22]: inactive | zone of inhibition at 40 µg/disc [23]: 22 mm | MIC [24]: 6.25 µg/mL (≈ 14.3 µM) | diameter of the inhibition zone (DIZ) [25]: inactive | MIC [26]: 3.13 µg/mL (≈ 7.15 µM) | zone of inhibition at 40 µg/disc [27]: 17 mm | MIC [28]: 12.5 µg/mL (≈ 28.6 µM) | MIC [1]: 0.78 µg/mL (≈ 1.78 µM) | zone of inhibition at 40 µg/disc [29]: 26 mm | diameter of the inhibition zone (DIZ) [30]: inactive | zone of inhibition at 40 µg/disc [31]: 19 mm | zone of inhibition at 40 µg/disc [32]: 20 mm | zone of inhibition at 40 µg/disc [33]: 13 mm | diameter of the inhibition zone (DIZ) [34]: inactive | MIC [35]: 0.1 µg/mL (≈ 0.229 µM) | diameter of the inhibition zone (DIZ) [36]: inactive | zone of inhibition at 40 µg/disc [37]: 23 mm | MIC [38]: 1.56 µg/mL (≈ 3.57 µM) | zone of inhibition at 40 µg/disc [39]: 9 mm | zone of inhibition at 40 µg/disc [40]: 24 mm | zone of inhibition at 40 µg/disc [41]: 26 mm | zone of inhibition at 40 µg/disc [42]: 21 mm | zone of inhibition at 40 µg/disc [43]: 22 mm | MIC [2]: 0.05 µg/mL (≈ 0.114 µM) | zone of inhibition at 40 µg/disc [44]: 14 mm | diameter of the inhibition zone (DIZ) [45]: inactive | zone of inhibition at 40 µg/disc [46]: 23 mm | zone of inhibition at 40 µg/disc [47]: 24 mm | zone of inhibition at 40 µg/disc [48]: 10 mm | zone of inhibition at 40 µg/disc [49]: 20 mm | MIC [3]: 0.78 µg/mL (≈ 1.78 µM) | zone of inhibition at 40 µg/disc [50]: 22 mm | zone of inhibition at 40 µg/disc [51]: 23 mm | diameter of the inhibition zone (DIZ) [52]: inactive | zone of inhibition at 40 µg/disc [53]: 24 mm | zone of inhibition at 40 µg/disc [54]: 15 mm
